Measured values from patent US12569500B2, “Combination comprising tricycle compound and use thereof in preparation of medicament for treating HBV” (FUJIAN AKEYLINK BIOTECHNOLOGY CO., LTD., priority 2020, dated 2026).
Where two headings read alike, the source gives them in different places.

Key:
[1] = tested on: HepG2.2.15 cells; assay: CellTiter-Glo cytotoxicity of compound 1 / TDF combination; type: cell-based
Description: 1.1 Day 1, HepG2.2.15 cells were seeded into a 96-well cell culture plate at a density of 40,000 cells/well, and then the cells were cultured overnight at 5% CO2 and 37° C.
1.2 Day 2, the compound 1 and TDF were combined with 7 different concentrations (selected about 8×, 4×, 2×, 1×, 0.5×, 0.25×, 0.125×EC50 concentration gradient) for orthogonal proportioning, and added to 96-well plate, each combination is 3 double plates, and the final concentration of DMSO is 0.5%.
1.3 Day 5, the cell supernatant was discarded, a fresh medium containing the compound was added, and the cells were cultured under 5% CO2, 37° C. for 3 days. On the 8th day, the supernatant from the cell plate treated with the compound was extracted according to the QIAamp 96 DNA Blood Kit (12) instruction.
MacSynegy software (Prichard et al., 1990) was used to process the HBV DNA copy number test data and analyze the effect parameters of compound 1 and TDF in combination. The CellTiter-Glo kit was used to detect the cytotoxicity of the compounds to HepG2.2.15 cells. According to the kit instructions, use a multifunctional microplate reader to detect the chemiluminescence intensity (RLU) of each cell well.

[2] = Pharmacokinetic analysis of test compounds in AAV/HBV model mice; type: in vivo, C57BL/6 mice
[3] = Single agent cytotoxicity, CellTiter-Glo; type: cell-based; settings: human, HepG2.2.15 cells
Description: (§1) Cell line: HepG2.2.15 cells are constructed and provided by WuXi AppTec. The cell culture medium is DMEM/F12 medium supplemented with 2% fetal bovine serum, 2 mM glutamine, 1×non-essential amino acids, 100 U/mL penicillin and 100 µg/mL streptomycin.
(§2) 2.1.1 On the first day, HepG2.2.15 cells were seeded into a 96-well cell culture plate at a density of 60,000 cells/well, and then the cells were cultured overnight at 5% CO2 and 37° C. On the second day, the compound 1 and the compound of formula (IIb) and the compound of formula (IIIb) were diluted and added to a 96-well plate. Each combination was a three-fold plate. The cells were cultured under 5% CO2 and 37° C. for 3 days. On the 5th day, a new culture medium containing the compound was replaced, and the supernatant was collected on the 8th day. The HBsAg in the supernatant was detected by ELISA, and the DNA in the supernatant was extracted at the same time, and the content of HBV DNA in the supernatant was detected by quantitative PCR. After collecting the cell supernatant, add CellTiter-Glo to detect cell viability.

[4] = tested on: HepG2.2.15 cells; assay: Cytotoxicity of the compounds in combination, CellTiter Glo; type: cell-based
Description: as §1
2.2.1 On the first day, HepG2.2.15 cells were seeded into a 96-well cell culture plate at a density of 60,000 cells/well, and then the cells were cultured overnight at 5% CO2 and 37° C. On the second day, different concentrations of compounds were added to treat the cells. Compounds were diluted in gradients, 7×7 concentration combinations, and 3 replicate plates were tested in parallel. The compound concentration tested for joint activity is based on the EC50 value of each compound. The 7 concentration gradients are approximately: 2×, 1×, ½×, ¼×, ⅛×, 1/16× and 1/32×EC50. The compound concentration of the combined activity test experiment is shown in Table 8, and the combination drug arrangement is shown in Table 9. On the 5th day, replace the fresh culture medium containing the compound. On the 8th day, the culture supernatant was collected, DNA was extracted, and the content of HBV DNA was detected by quantitative PCR. At the same time, CellTiter Glo reagent was used to detect cell viability and MacSynergy software was used to analyze the combined effect of the two drugs.

[5] = tested on: HBV; assay: Single agent anti-HBV activity, HBV DNA in supernatant by quantitative PCR, HepG2.2.15 cells; type: cell-based; settings: Hepatitis B virus, 192 h, day 8
Description: as §1, §2

[6] = 10 mg/kg, BID, AAV/HBV model mice, day 27
[7] = C57BL/6, mouse, serum, po, 10 mg/kg, BID, AAV/HBV model mice, day 27

SMILES: Cc1cc2n(c1)S(=O)(=O)c1ccc(C(=O)NCC[C@H]3COCCO3)cc1NC2=O [Compound 1]
- average cell viability percentage ([1]; Compound 1 0.533 nM + TDF 0 nM): 121.5%
- average cell viability percentage ([1]; Compound 1 1.065 nM + TDF 0 nM): 128.1%
- average cell viability percentage ([1]; Compound 1 2.131 nM + TDF 0 nM): 124.5%
- average cell viability percentage ([1]; Compound 1 4.261 nM + TDF 0 nM): 125.1%
- average cell viability percentage ([1]; Compound 1 8.522 nM + TDF 0 nM): 124.3%
- average cell viability percentage ([1]; Compound 1 17.04 nM + TDF 0 nM): 123.1%
- average cell viability percentage ([1]; Compound 1 34.09 nM + TDF 0 nM): 115.2%
- AUC0-inf/AUC0-last [2, 6]: 101%
- Tlast [2, 6]: 24.0 h
- T 1/2 calculation time range ([2]; 10 mg/kg, BID, AAV/HBV model mice, day 27, in h): 9-24
- AUC(0-t) ([2]; C57BL/6, mouse, serum, po, 10 mg/kg, BID, AAV/HBV model mice, day 27, read-out: AUC0-8): 26 µM·h
- AUC(0-t) ([2]; C57BL/6, mouse, serum, po, 10 mg/kg, BID, AAV/HBV model mice, day 27, read-out: AUC0-last): 47.3 µM·h
- AUC(0-inf) [2, 7]: 47.6 µM·h
- Cmax [2, 7]: 12200 nM
- Tmax [2, 7]: 1 h
- half-life [2, 7]: 2.23 h
- MRT inf ([2]; C57BL/6, mouse, serum, po, 10 mg/kg, BID, AAV/HBV model mice, day 27, read-out: MRT0-inf): 6.36 h
- MRT last ([2]; C57BL/6, mouse, serum, po, 10 mg/kg, BID, AAV/HBV model mice, day 27, read-out: MRT0-last): 6.27 h
- concentration at 0 h ([2]; C57BL/6, mouse, serum, group 2, 10 mg/kg BID oral, day 27, 0 hours (before dosage), read-out: average drug concentration in the mouse serum): 78 nM
- concentration at 4 h ([2]; C57BL/6, mouse, serum, group 2, 10 mg/kg BID oral, day 27, 4 hours after the first dosage, read-out: average drug concentration in the mouse serum): 1630 nM
- concentration at 8 h ([2]; C57BL/6, mouse, serum, group 2, 10 mg/kg BID oral, day 27, 8 hours after the first dosage, read-out: average drug concentration in the mouse serum): 605 nM
- concentration at 9 h ([2]; C57BL/6, mouse, serum, group 2, 10 mg/kg BID oral, day 27, 9 hours after the first dosage, read-out: average drug concentration in the mouse serum): 10300 nM
- concentration at 12 h ([2]; C57BL/6, mouse, serum, group 2, 10 mg/kg BID oral, day 27, 12 hours after the first dosage, read-out: average drug concentration in the mouse serum): 1280 nM
- concentration at 24 h ([2]; C57BL/6, mouse, serum, group 2, 10 mg/kg BID oral, day 27, 24 hours after the first dosage, read-out: average drug concentration in the mouse serum): 66 nM
- CC50 at 6 days [3]: > 1000 nM
- average cell viability percentage ([4]; Compound 1 0.1875 nM + formula (IIIb) 0 nM): 110.07%
- average cell viability percentage ([4]; Compound 1 0.1875 nM + formula (IIb) 0 nM): 109.29%
- average cell viability percentage ([4]; Compound 1 0.375 nM + formula (IIIb) 0 nM): 112.42%
- average cell viability percentage ([4]; Compound 1 0.375 nM + formula (IIb) 0 nM): 109.88%
- average cell viability percentage ([4]; Compound 1 0.75 nM + formula (IIIb) 0 nM): 111.36%
- average cell viability percentage ([4]; Compound 1 0.75 nM + formula (IIb) 0 nM): 106.91%
- average cell viability percentage ([4]; Compound 1 1.5 nM + formula (IIIb) 0 nM): 111.96%
- average cell viability percentage ([4]; Compound 1 1.5 nM + formula (IIb) 0 nM): 105.37%
- average cell viability percentage ([4]; Compound 1 3 nM + formula (IIIb) 0 nM): 112.58%
- average cell viability percentage ([4]; Compound 1 3 nM + formula (IIb) 0 nM): 104.39%
- average cell viability percentage ([4]; Compound 1 6 nM + formula (IIIb) 0 nM): 112.45%
- average cell viability percentage ([4]; Compound 1 6 nM + formula (IIb) 0 nM): 103.50%
- average cell viability percentage ([4]; Compound 1 12 nM + formula (IIIb) 0 nM): 111.17%
- average cell viability percentage ([4]; Compound 1 12 nM + formula (IIb) 0 nM): 102.08%
- EC50 [5]: 6.03 nM
